Measured values: patent US20070270392A1, “Use of a Cyclopentenone Prostaglandin for Delaying the Onset and/or Preventing the Continuation of Labour” (Imperial College Innovations Limited, priority 2003, published 2007)

Experiments:
Type in all cases: cell-based, human
COX-2 [1] = experiment: Western immunoblot of IL-1β-induced COX-2 protein expression in myometrial cells; conditions: treated 2 h, IL-1β 6 h
Protocol: Myometrial tissue was collected at term from the upper margin of uterine incision at the time of lower segment caesarean section either prior to the onset of labour (L−) or […] (L+). L+ samples were collected by Dr Mark Johnson and Dr S Soorrana at Chelsea & Westminster Hospital. Myometrial tissue was dissected, rinsed in PBS, and digested in serum-free DMEM containing 15 mg/ml collagenase 1A (Sigma), 15 mg/ml collagenase X, and 50 mg/ml bovine serum albumin for 45 min at 37° C. The cell suspension was filtered through a cell strainer, centrifuged at 400 g for 5 min, and the pellet re-suspended and plated out in DMEM, 10% FCS (Helena BioScience), 1% L-glutamine, 1% penicillin-streptomycin. Cells were used between passage numbers 1-4.
Protein samples (20-70 μg) were mixed with Laemmli sample buffer (1:1) containing β-mercaptoethanol (5%), and boiled for 5 min. Proteins were then separated by SDS-PAGE (12-14% gels) and transferred onto PVDF membrane (Amersham Pharmacia Biotech). […] The blots were then incubated with HRP-conjugated secondary antibody (diluted 1:2000 in 1% non-fat milk in PBS-T buffer) for 1 h and washed three times (10 min each) in PBS-T. Signal detection was achieved using enhanced chemi-luminescence (ECL plus system, Amersham Pharmacia Biotech) according to manufacturer's instructions. […]

IKKα or IKKβ = experiment: Western immunoblot of IKK protein expression in myometrial cells
Protocol: Western immunoblots of cytosolic extracts from myometrial cells (A) treated with 15dPGJ2 for 2 h+/−IL1b for 15 min; probed for IKK, and (B) treated with […] 15dPGJ2, […] MG132 or vehicle for 2 h, +/−IL-1β for 15 min; probed for IκBα.
(§1) Protein samples (20-70 μg) were mixed with Laemmli sample buffer (1:1) containing β-mercaptoethanol (5%), and boiled for 5 min. Proteins were then separated by SDS-PAGE (12-14% gels) and transferred onto PVDF membrane (Amersham Pharmacia Biotech). The membranes were blocked overnight in 5% non-fat milk prepared in PBS-T buffer, at 4° C. The blots were incubated with the primary antibody in 1% non-fat milk in PBS-T buffer for 1 h, and washed three times (10 min each) in PBS-T with vigorous shaking. The blots were then incubated with HRP-conjugated secondary antibody (diluted 1:2000 in 1% non-fat milk in PBS-T buffer) for 1 h and washed three times (10 min each) in PBS-T. Signal detection was achieved using enhanced chemi-luminescence (ECL plus system, Amersham Pharmacia Biotech) according to manufacturer's instructions.
(§2) 30-50 μg protein extracts were subjected to SDS-PAGE and Western immuno-blotting. Secondary antibodies were IgG-HRP and ECL Plus detection kit (Amersham Pharmacia Biotech, Amersham Place, Little Chalfont, Bucks, HP7 9NA) was used for visualisation.

PPAR-γ = experiment: Western immunoblot of PPAR-γ protein expression in myometrial and amnion cells
Protocol: Western immunoblots of (A) nuclear and cytosolic protein extracts from myometrial and amnion cells with or without 15 min IL-1β stimulation, and (B) nuclear extracts of myometrial cells treated with 15d-PGJ2+/−IL-1b. Probing with antibody to PPARγ.
as §1, §2

COX-2 [2] = experiment: IL-1β-induced COX-2 expression in L− and L+ amnion cells
Protocol: (§3) Placentae were obtained from patients at term either at elective Caesarean section prior to labour (L−) or following spontaneous labour onset and vaginal delivery (L+). Amnion cells were prepared as described in Bennett et al., (1989). Briefly, the amnion was separated from the placenta, washed 3× in PBS, cut into strips, and incubated in 0.51 mM EDTA in PBS for 15 min. The strips were washed in PBS 2× and digested with 2.5 mg/ml dispase in serum-free DMEM for 35 min at 37° C. The amnion was then shaken vigorously in DMEM, 10% FCS to dissociate the cells, the remaining strips discarded, and the cell suspension pelleted at 175 g for 10 min and cultured in DMEM, 10% FCS (Sigma), 1% L-glutamine, 1% penicillin-streptomycin.
as §1, with “The blots were incubated with the primary antibody in 1% non-fat milk in PBS-T buffer for 1 h, and washed three times (10 min each) in PBS-T with vigorous shaking.” left out, “instructions. […]” for “instructions.”

NF-κB = experiment: Western immunoblot of NF-κB activation (p65, p50, IκB) in amnion cells; conditions: L−
Protocol: Western immunoblots of nuclear or cytosolic protein extracts from (A) myometrial cells, (B) L− amnion cells, and (C) L+amnion cells treated with 15dPGJ2 or vehicle for 2 h+/−IL-1, stimulation (15 min). Blots probed with antibodies against p65, p50 or IκBα.
as §3
Nuclear and cytosolic protein extracts were obtained from cultured amnion cells as described by Schreiber et al (1989). For nuclear/cytosolic fractionation, confluent cell monolayers were scraped and lysed using a buffer containing 10 mM HEPES, 10 mM KCl, 0.1 mM EDTA, 0.1 mM EGTA, 2 mM DTT, 1% (v/v) NP-40 and complete protease inhibitor tablets (CPIs, Roche), diluted to manufacturer's instructions. Cell lysates were incubated on ice for 10 min and NP-40 added to a final concentration of 1% (v/v). Lysates were vortexed for 10 secs and centrifuged for 30 secs at 4° C., 12000 g. The supernatants were retained as the cytosolic protein extracts. The pellets were resuspended in buffer containing 10 mM HEPES, 10 mM KCl, 0.1 mM EDTA, 0.1 mM EGTA, 2 mM DTT, 400 mM NaCl, 1% NP-40 (v/v) and CPIs. Samples were shaken vigorously for 15 min in an ice bath. The nuclear protein extracts were obtained in the supernatant following a 5 min centrifugation at 4° C., 12000 g.
as §1, with “instructions. […]” for “instructions.”

CCCCCC=CC=C1C(=O)C=C[C@@H]1CC=CCCCC(=O)O [15d-PGJ2, 15-deoxy-Δ^12,14prostaglandin J2]
IL-1β-induced COX-2 expression (COX-2 [1]): inhibited
IKKα or IKKβ protein expression (IKKα or IKKβ): had no effect
PPAR-γ protein expression (PPAR-γ): not affected
IL-1β-induced COX-2 expression (COX-2 [2]): inhibited
IL-1β-induced IκBα and IκBβ degradation (NF-κB): inhibition
IL-1β-induced p50 phosphorylation (NF-κB): inhibited
IL-1β-induced p65 nuclear translocation (NF-κB): inhibited
